In patent publication US11220479B2, “Glucosylceramide synthase inhibitors and therapeutic methods using the same” (THE REGENTS OF THE UNIVERSITY OF MICHIGAN, priority 2019, dated 2022):
Where two headings read alike, the source gives them in different places.

Assays:
[1] = target: T1, glucosylceramide synthase (GCS) (Canis lupus familiaris, UniProt A0A8I3MXG6); assay: GCS inhibition in MDCKII cells (inhibition of GlcCer production in whole wild-type MDCKII cells); type: cell-based; settings: read-out: MDCK IC50
T1 construct: endogenous in cells; host or cells: parental (wild-type) MDCKII cells
T1 sequence (A0A8I3MXG6 1-394): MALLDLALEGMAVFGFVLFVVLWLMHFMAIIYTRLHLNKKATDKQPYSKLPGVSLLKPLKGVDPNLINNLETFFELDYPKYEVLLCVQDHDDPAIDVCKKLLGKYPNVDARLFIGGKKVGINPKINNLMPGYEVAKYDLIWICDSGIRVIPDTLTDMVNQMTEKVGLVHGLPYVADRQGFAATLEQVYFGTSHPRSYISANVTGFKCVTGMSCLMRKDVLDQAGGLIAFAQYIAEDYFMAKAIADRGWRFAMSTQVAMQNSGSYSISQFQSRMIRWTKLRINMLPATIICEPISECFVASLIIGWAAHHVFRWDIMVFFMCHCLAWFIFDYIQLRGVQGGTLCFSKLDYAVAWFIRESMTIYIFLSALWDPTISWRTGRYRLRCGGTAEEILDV

[2] = system: brain glucosylceramide (GCS inhibition); assay: Reduction of brain glucosylceramide in CBE mice; type: in vivo; settings: qd, 14 days
Experimental: Reduction of Brain Glucosylceramide and Glucosylsphingosine in CBE Mice
The reduction by inhibitors of GCS in brain glucosylceramide and glucosylsphingosine content was determined by the use of mice with Gba 1 mutant alleles, termed D409V/null. These are knock-in mice with a Gba 1 point mutation encoding Valine (V) 409 for the wild type (WT) Aspartate (D) on one missense allele and a null heteroallele [D409V/null (9V/null)]. The D409V/null and WT littermates were of mixed gender and mixed, but matched, genetic backgrounds of C57BL/129Sv/FVB. (Xu Y H, Sun Y, Barnes S, Grabowski G A (2010) Comparative therapeutic effects of velaglucerase alfa and imiglucerase in a Gaucher disease mouse model. PLoS One 5: e10750.) Mice were treated with intraperitoneal conduritol B epoxide (CBE), an irreversible inhibitor of beta-glucocerebrosidase (25 mg/kg/day) for all groups beginning at post-partum day 15. Mice were concurrently treated with GCS inhibitor or vehicle control for 14 days. The mice were sacrificed 2 hours following the last injection and tissues including brain, liver, spleen, kidney and lung were analyzed for glucosylceramide and glucosylsphingosine by mass spectrometry.
Mouse Tissue Lipid Analysis
Lipid extractions of liver, kidney, and brain were performed as previously described (7). Briefly, frozen liver (about 0.5 g), two kidneys (about 0.3 g) and whole brain (about 0.4 g) were individually homogenized in sucrose buffer (250 mM sucrose, pH 7.4, 10 mM HEPES and 1 mM EDTA), at 0.2 g tissue/1 mL of sucrose buffer, with a Tri-R homogenizer. Each 0.8 mL of homogenate was mixed with 2 mL of methanol and 1 mL of chloroform, bath sonicated for 1 min and incubated at room temperature for 1 h. Tissue debris were removed by centrifugation at 2,400× gravity for 30 min. The pellets were re-extracted by mixing with 1 mL of methanol, 0.5 mL of chloroform and 0.4 mL of 0.9% NaCl (chloroform/methanol/0.9% NaCl, 1:2:0.8), incubated at room temperature for 1 h and centrifuged at 2,400× gravity for another 30 min. Two extracts were combined and mixed with 4.5 mL of chloroform and 1.2 mL of 0.9% NaCl (chloroform/methanol/0.9% NaCl, 2:1:0.8). After centrifugation at 800× gravity for 5 min, lower layer was washed with 3 mL of methanol and 2.4 mL of 0.9% NaCl. Second washing was carried with 3 mL of methanol, 2 mL of water and 0.4 mL of 0.9% NaCl followed by a 5 min centrifugation at 800× gravity. The resultant lower phase was collected and dried under a stream of N2 gas.
The analysis of neutral glycosphingolipids from mouse liver, kidney, and brain was processed after alkaline methanolysis. […] lipids were incubated with 2 mL of chloroform and 1 ml of 0.21N NaOH in methanol for 2 h (kidney) or 7.5 h (liver and brain) at RT. The lipid extract was normalized to 0.5 μmol of total phospholipid phosphate (liver and kidney) or 2 μmol of total phospholipid phosphate (brain) for high performance thin layer chromatography analysis. After alkaline methanolysis, the brain lipids were passed through a silica gel column (7). Borate-impregnated thin layer chromatography plates were developed in a two solvent system. Plates were first developed in chloroform/methanol (98:2, v/v). The plates loaded with kidney and liver lipids were then developed in chloroform/methanol/water (64:24:4, v/v/v), and brain lipids were further separated in chloroform/methanol/water (60:30:6, v/v/v). GlcCer levels were quantified by comparison to known standards.
(§1) ^a Inhibition of GlcCer production in whole wild-type MDCKII cells. ^bHalf-life when incubated with mouse liver microsomes. ^cAreas under the drug concentration curve after single IP dose in mice (10 mg/kg). ^dReduction in brain levels of glucosylceramide in CBE mice after 14 days of qd dosing with test drug administered IP. NC=no change.

[3] = Half-life when incubated with mouse liver microsomes (MLM); type: in vitro ADME; settings: read-out: MLM T½
Experimental: as §1

[4] = IP PK: areas under the drug concentration curve after single IP dose in mice; type: in vivo; settings: for IP PK Brain AUC / AUC: mice, single IP dose 10 mg/kg; for AUC: mouse, plasma
[5] = inhibition of GlcCer production in whole wild-type MDCKII cells, 24 hours
[6] = half-life when incubated with mouse liver microsomes
[7] = mouse, liver microsomes, Table 2, Cl vs H comparison

Row | SMILES | IC50 [1, 5] | half-life [3, 6] | IP PK Brain AUC [4] | AUC [4] | drug exposure in the brain versus compound lacking the 3-chloro substituent [4] | IC50 ([1]; Table 2, Cl vs H comparison) | half-life [3, 7] | Reduction in brain GlcCer in CBE mice ([2]; 26 μmol/kg/day IP) | Reduction in brain GlcCer in CBE mice ([2]; 100 μmol/kg/day IP) | Reduction in brain GlcCer in CBE mice ([2]; 36 μmol/kg/day IP)
1 | [2H]C([2H])([2H])N(C(=O)CC1Cc2ccccc2C1)[C@H](CN1CCCC1)[C@H](O)c1cccc(Cl)c1 [Example 17, N-((1R,2R)-1-(3-chlorophenyl)-1-hydroxy-3-(pyrrolidin-1-yl)propan-2-yl)-2-(2,3-dihydro-1H-inden-2-yl)-N-(methyl-d3)acetamide] | 11 nM | 15 min | 742 ng·h/mL | 366 ng·h/mL |  |  |  |  |  | 
2 | CC1(C)COc2cc([C@@H](O)[C@@H](CN3CCCC3)NC(=O)CC3Cc4ccccc4C3)cc(Cl)c2O1 [Example 7, N-((1R,2R)-1-(8-chloro-2,2-dimethyl-2,3-dihydrobenzo[b][1,4]dioxin-6-yl)-1-hydroxy-3-(pyrrolidin-1-yl)propan-2-yl)-2-(2,3-dihydro-1H-inden-2-yl)acetamide] | 0.061 nM | 44 min | 129 ng·h/mL | 590 ng·h/mL | improved |  |  | 49% |  | 
3 | CC1(Oc2ccc([C@@H](O)[C@@H](CN3CCCC3)NC(=O)CC3Cc4ccccc4C3)cc2Cl)COC1 [Example 5, N-((1R,2R)-1-(3-chloro-4-((3-methyloxetan-3-yl)oxy)phenyl)-1-hydroxy-3-(pyrrolidin-1-yl)propan-2-yl)-2-(2,3-dihydro-1H-inden-2-yl)acetamide] | 0.74 nM | 40 min | 366 ng·h/mL | 849 ng·h/mL | improved |  |  |  | 64% | 
4 | O=C(N[C@H](CN1CCCC1)[C@H](O)c1cccc(Cl)c1)OC1Cc2ccccc2C1 [Example 6, 2,3-dihydro-1H-inden-2-yl ((1R,2R)-1-(3-chlorophenyl)-1-hydroxy-3-(pyrrolidin-1-yl)propan-2-yl)carbamate] | 3.8 nM | 18 min | 997 ng·h/mL | 401 ng·h/mL |  |  |  |  |  | 
5 | O=C(CC1Cc2ccccc2C1)N[C@H](CN1CCCC1)[C@H](O)c1cccc(Cl)c1 [Example 1, N-((1R,2R)-1-(3-chlorophenyl)-1-hydroxy-3-(pyrrolidin-1-yl)propan-2-yl)-2-(2,3-dihydro-1H-inden-2-yl)acetamide] | 1 nM | 18 min | 1109 ng·h/mL | 1540 ng·h/mL |  |  |  |  |  | 23%
6 | O=C(CC1Cc2ccccc2C1)N[C@H](CN1CCCC1)[C@H](O)c1ccc(OC(F)(F)F)c(Cl)c1 [Example 3, N-((1R,2R)-1-(3-chloro-4-(trifluoromethoxy)phenyl)-1-hydroxy-3-(pyrrolidin-1-yl)propan-2-yl)-2-(2,3-dihydro-1H-inden-2-yl)acetamide] | 4.1 nM | 316 min |  |  |  |  |  |  |  | 
7 | O=C(CC1Cc2ccccc2C1)N[C@H](CN1CCCC1)[C@H](O)c1ccc(C2CC2)cc1 [Comp. Ex. 8, reference compound] |  |  |  |  |  | 3.9 nM | 56 min |  |  | 
8 | CC1(C)COc2cc([C@@H](O)[C@@H](CN3CCCC3)NC(=O)CC3Cc4ccccc4C3)ccc2O1 [Comp. Ex. 7, reference compound] |  |  |  |  |  | 1 nM | 29 min |  |  | 

The next lines start with results.

Row | IC50 [1, 5] | half-life [3, 6] | IP PK Brain AUC [4] | AUC [4] | drug exposure in the brain versus compound lacking the 3-chloro substituent [4] | IC50 ([1]; Table 2, Cl vs H comparison) | half-life [3, 7] | SMILES | Reduction in brain GlcCer in CBE mice ([2]; 26 μmol/kg/day IP) | Reduction in brain GlcCer in CBE mice ([2]; 100 μmol/kg/day IP) | Reduction in brain GlcCer in CBE mice ([2]; 36 μmol/kg/day IP)
9 | 0.8 nM | 50 min | 869 ng·h/mL | 2180 ng·h/mL |  |  |  | O=C(CC1Cc2ccc(F)cc2C1)N[C@H](CN1CCCC1)[C@H](O)c1cccc(Cl)c1 (stereo partly drawn) [Example 9, N-((1R,2R)-1-(3-chlorophenyl)-1-hydroxy-3-(pyrrolidin-1-yl)propan-2-yl)-2-(5-fluoro-2,3-dihydro-1H-inden-2-yl)acetamide] | 43% |  | 
10 | 0.71 nM | 187 min | 216 ng·h/mL | 535 ng·h/mL |  |  |  | O=C(CC1Cc2ccccc2C1)N[C@H](CN1CCCC1)[C@H](O)c1ccc(OC(F)F)c(Cl)c1 [Example 13, N-((1R,2R)-1-(3-chloro-4-(difluoromethoxy)phenyl)-1-hydroxy-3-(pyrrolidin-1-yl)propan-2-yl)-2-(2,3-dihydro-1H-inden-2-yl)acetamide] |  |  | 
11 | 0.17 nM | 24 min | BLQ | 644 ng·h/mL |  |  |  | O=C(CC1Cc2ccccc2C1)N[C@H](CN1CCCC1)[C@H](O)c1cc(Cl)ccc1F [Example 23, N-((1R,2R)-1-(5-chloro-2-fluorophenyl)-1-hydroxy-3-(pyrrolidin-1-yl)propan-2-yl)-2-(2,3-dihydro-1H-inden-2-yl)acetamide] |  |  | 
12 | 0.63 nM | 5.5 min | 178 ng·h/mL | 397 ng·h/mL |  |  |  | O=C(CC1Cc2ccccc2C1)N[C@H](CN1CC[C@@H](F)C1)[C@H](O)c1ccc(OC2CC2)c(Cl)c1 [Example 11, N-((1R,2R)-1-(3-chloro-4-cyclopropoxyphenyl)-3-((R)-3-fluoropyrrolidin-1-yl)-1-hydroxypropan-2-yl)-2-(2,3-dihydro-1H-inden-2-yl)acetamide] |  |  | 
13 | 0.32 nM | 29 min | 210 ng·h/mL | 370 ng·h/mL |  |  |  | O=C(N[C@H](CN1CCCC1)[C@H](O)c1ccc(OC2CC2)c(Cl)c1)OC1Cc2ccccc2C1 [Example 12, 2,3-dihydro-1H-inden-2-yl ((1R,2R)-1-(3-chloro-4-cyclopropoxyphenyl)-1-hydroxy-3-(pyrrolidin-1-yl)propan-2-yl)carbamate] | 32% |  | 
14 | 8.7 nM | 12 min | 940 ng·h/mL | 289 ng·h/mL |  |  |  | O=C(CC1Cc2ccccc2C1)N[C@H](CN1CC[C@@H](F)C1)[C@H](O)c1cccc(Cl)c1 [Example 10, N-((1R,2R)-1-(3-chlorophenyl)-3-((R)-3-fluoropyrrolidin-1-yl)-1-hyroxypropan-2-yl)-2-(2,3-dihydro-1H-inden-2-yl)acetamide] |  |  | 
15 | 19.5 nM | 0.8 min | 2656 ng·h/mL | 913 ng·h/mL |  |  |  | O=C(N[C@H](CN1CC[C@@H](F)C1)[C@H](O)c1cccc(Cl)c1)OC1Cc2ccccc2C1.O=C(O)C(=O)O [Example 15, 2,3-dihydro-1H-inden-2-yl ((1R,2R)-1-(3-chlorophenyl)-3-((R)-3-fluoropyrrolidin-1-yl)-1-hydroxypropan-2-yl)carbamate oxalate] |  |  | 
